According to patent publication US20070202502A1, “Assay For Bipolar Affective Disorder” (priority 2004, published 2007):
“Also recorded” adds a separate entry of the source.

Tested on: mouse FAT mRNA
Assay: FAT mRNA expression in whole brain of mice treated with lithium or valproate, quantitative real-time PCR
Settings: C57B16 mice, intraperitoneal once daily for 7 days (lithium 340 mg/kg/day; valproate 350 mg/kg/day)

CCCC(CCC)C(=O)O [valproate, 2-propylpentanoic acid]
effect on relative FAT mRNA expression level (relative to GAPDH mRNA): appear to reduce; also recorded: appears to be reduced
